Among the data in patent publication EP0871764B1, “SCREENING METHOD” (Novartis AG, priority 1995, dated 1997) are Kd values, retold here.

The target in this assay is T1, RAC-PK PH domain (Homo sapiens, UniProt P31749).
T1 construct: pGEX-PH131 contains an in-frame fusion of amino acids 1-131 of human RAC-PKα with GST; GST (N, cleaved yes); made in house; host or cells: E. coli (JM109)
T1 sequence (P31749 1-131): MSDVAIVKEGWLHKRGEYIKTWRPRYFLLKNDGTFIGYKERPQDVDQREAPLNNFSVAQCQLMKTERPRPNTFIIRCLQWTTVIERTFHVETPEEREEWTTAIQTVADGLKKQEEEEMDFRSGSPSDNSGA
Description: Quenching of the intrinsic Trp fluorescence of the PH domain by phospholipids and inositol phosphates. The note with it: calculated from reduction of 345nm fluorescence (excited at 290nm); 10mM Hepes/NaOH, pH 7.0, 10mM MgCl2, 25°C; read-out: Dissociation Constant. In kind it is binding. On the procedure:
Purified PH domain obtained according to Example 1 is incubated at a concentration of 1.4µM in 10mM Hepes/NaOH, pH 7.0, 10mM MgCl2, at 25°C.
Under the same conditions as Example 3, the RAC-PK PH domain is incubated in the presence of varying concentrations of phospholipids and inositol phosphates and fluorescence is measured. […]
`O=P(O)(O)OC1C(O)C(O)C(O)C(O)C1O` (centres unmarked) [Ins (1) monophosphate]: the Kd is 7000 nM.

For `O=P(O)(O)OC1C(O)C(O)C(OP(=O)(O)O)C(O)C1O` (centres unmarked) [Ins (1,4) bisphosphate], the Kd was 900 nM.

Take Ptd-Ins (4,5)bisphosphate: the Kd is 400 nM.

With `O=P(O)(O)OC1C(O)C(O)C(O)C(O)C1O` (centres unmarked) [Ins (2) monophosphate], the Kd was 8400 nM.

As for `O=P(O)(O)OC1C(O)C(O)C(OP(=O)(O)O)C(OP(=O)(O)O)C1O` (centres unmarked) [Ins (1,4,5) trisphosphate], the Kd is 1200 nM.
